Data set [1] is described as follows: Water solubility (qualitative statement). Type of data set: physicochemical. From the text: Ready-to-use bisacodyl preparations have a short shelf-life (i.e., less than 18 months), can experience settling, and result in waste (e.g., a significant portion of the drug remains in the package). There is a need in the art for a ready-to-use bisacodyl preparation with a longer shelf life and less wasteful apparatus for delivery into the colon.

The text on data set [2]: The molecular formula for bisacodyl is (C22H19NO4), and the molecular weight is 361.39 gram/mole.
For data set [3] the following is noted: cited from earlier work.

Each structure is given as a SMILES string.

As for `Oc1ccc(C(c2ccc(O)cc2)c2ccccn2)cc1` [desacetyl bisacodyl], the water solubility result in data set [1] is “poor water solubility”.
As for `CC(=O)Oc1ccc(C(c2ccc(OC(C)=O)cc2)c2ccccn2)cc1` [Bisacodyl, 4,4′-(pyridin-2-ylmethylene)bis(4,1-phenylene) diacetate], in data set [2], the aqueous molar solubility amounted to 3.4 µM. The water solubility entry in data set [1] is “poor water solubility”. For the same molecule, in data set [3] (administered orally, 5-10 milligrams), the “time to have an effect” value is 6 to 12 h. For the same molecule, the “time in which usually effective” value in data set [3] (administered rectally in suppository form, 10 mg) is 15 to 60 min.

The values above are taken from patent publication US9993426B2, “Bisacodyl compositions and delivery apparatus” (C.B. FLEET COMPANY INCORPORATED, priority 2015, dated 2018).
